The numbers were not newly measured in US20070128276A1 (PANACEA BIOTEC LTD., priority 1999, published 2007), which cites them from elsewhere.

Series [1] has as its system prostaglandin synthesis. Conditions: in vitro.
Series [2] deals with yeast-induced fever. Conditions: rats with yeast-induced fever.
For series [3] the following is noted: animal studies.
Series [4] has as its system renal prostaglandin synthesis. The following applies: rats.
Series [5] deals with plasma proteins.

For the molecule `CS(=O)(=O)Nc1ccc([N+](=O)[O-])cc1Oc1ccccc1` [Nimesulide], the oral drug absorption entry is listed as “nearly complete”. Also, the “inhibition of prostaglandin synthesis” value in series [1] is on record as “relatively weak inhibitor”. Besides, the “antipyretic potency versus reference drugs” value in series [2] is “superior antipyretic potency to indomethacin, ibuprofen, aspirin and paracetamol (acetaminophen)”. Also, the “ulcerogenicity versus reference NSAIDs” value in series [3] is “less ulcerogenic than aspirin, indomethacin, naproxen, piroxicam and ibuprofen”. In addition, the “effect on renal prostaglandin synthesis” value in series [4] is “little effect”. The “effect of concomitant food on absorption” value (oral, concomitant administration of food) was “may decrease the rate, but not the extent of absorption”. In addition, the “bound to plasma proteins” value in series [5] is 99%.
